Source: ChEMBL document CHEMBL5055686, “Discovery of AL-GDa62 as a Potential Synthetic Lethal Lead for the Treatment of Gastric Cancer” (J Med Chem, 2021)
pEC50: −log10 of the molar value.

How the values were obtained:
[1] = test system: MCF-10A; assay: Antitumor activity against human spontaneously immortalized CDH-/- MCF10A cells assessed as cell numbers measured after 48 hrs; format: functional, cell-based; settings: for pEC50: Homo sapiens, MCF-10A, 48 h, read-out: EC50; for EC50: mcf-10a
[2] = Ratio of EC50 for antitumor activity against human spontaneously immortalized wild type MCF10A cells assessed as cell numbers measured after 48 hrs to antitumor activity against human spontaneously immortalized CDH-/- MCF10A cells assessed as cell numbers measured after 48 hrs; format: functional, MCF-10A
[3] = test system: MCF-10A; assay: Antitumor activity against human spontaneously immortalized wild type MCF-10A cells assessed as cell numbers measured after 48 hrs; format: functional, cell-based; settings: for pEC50: Homo sapiens, MCF-10A, 48 h, read-out: EC50; for EC50: mcf-10a
[4] = test system: MCF-10A; assay: Antitumor activity against human spontaneously immortalized CDH-/- MCF10A cells assessed as cell numbers at 3.13 uM measured after 48 hrs; format: functional

COc1ccc2nc(C)cc(NCc3cccc(-c4ccccc4)c3)c2c1
pEC50 [1]: 5.55 | Ratio EC50 [2]: 1.1 | pEC50 [3]: 5.51

COc1cc2c(NC3CCN(C)CC3)cc(-c3ccc(C)o3)nc2cc1OCCCN1CCCC1
pEC50 [1]: 6.70 | pEC50 [3]: 6.30

COc1ccc2nc(C)cc(NCc3cccc(C#N)c3)c2c1
pEC50 [1]: 4.87 | Ratio EC50 [2]: 1.3 | pEC50 [3]: 4.76

COc1ccc2nc(C)cc(NCc3ccc(C(F)(F)F)cc3)c2c1
pEC50 [1]: 5.12 | Ratio EC50 [2]: 1.4 | pEC50 [3]: 5.12

COc1cc2c(NC3CCN(C)CC3)cc(C)nc2cc1OCCCN1CCCC1
pEC50 [1]: 4.39 | Ratio EC50 [2]: 1 | pEC50 [3]: 4.41

COc1ccc2nc(C)cc(NCc3cccnc3)c2c1
pEC50 [1]: 4.35 | Ratio EC50 [2]: 1.1 | pEC50 [3]: 4.31

COc1ccc2nc(C)cc(NCc3cccc(N(C)C)c3)c2c1
pEC50 [1]: 4.85 | Ratio EC50 [2]: 1 | pEC50 [3]: 4.85

Cc1cc(NC2CCN(C)CC2)c2cc(OCCCN3CCCC3)ccc2n1
pEC50 [1]: 4.88 | Ratio EC50 [2]: 0.9 | pEC50 [3]: 4.94

COc1ccc2nc(C)cc(NCc3ccc(F)cc3)c2c1
pEC50 [1]: 5.09 | Ratio EC50 [2]: 1.5 | pEC50 [3]: 4.91

COc1ccc2c(NCc3ccc(F)cc3)cc(C)nc2c1
pEC50 [1]: 4.99 | Ratio EC50 [2]: 1.6 | pEC50 [3]: 4.80 | inhibition at 3.13 µM [4]: 10%

COc1ccc2nc(C)cc(NCc3ccc(F)cc3C(F)(F)F)c2c1
pEC50 [1]: 5.28 | Ratio EC50 [2]: 0.8 | pEC50 [3]: 5.38

Cc1cc(NCc2ccc(F)cc2)c2cc(OCCCCCCN=[N+]=[N-])ccc2n1
pEC50 [1]: 5.39 | Ratio EC50 [2]: 1 | pEC50 [3]: 5.40

COc1ccc2nc(C)cc(NCc3c(F)cccc3C(F)(F)F)c2c1
pEC50 [1]: 4.85 | Ratio EC50 [2]: 1 | pEC50 [3]: 4.85

COc1ccc2nc(C)cc(NCC3CCCN(C)C3)c2c1 (stereo not given)
pEC50 [1]: 5.19 | pEC50 [3]: 5.24

CCCCCCCOc1cc(OC)cc2c(NCc3ccc(F)cc3)cc(C)nc12
pEC50 [1]: 5.57 | Ratio EC50 [2]: 1.2 | pEC50 [3]: 5.48

COc1ccc2nc(C)cc(NCc3cc(F)cc(F)c3)c2c1
pEC50 [1]: 4.88 | Ratio EC50 [2]: 1.1 | pEC50 [3]: 4.74

COc1ccc2nc(C)cc(Nc3ccc(F)cc3)c2c1
pEC50 [1]: 4.55 | Ratio EC50 [2]: 1.1 | pEC50 [3]: 4.53

COc1ccc2nc(COCCCCCCN=[N+]=[N-])cc(NCc3ccc(F)cc3)c2c1.O=C(O)C(F)(F)F
pEC50 [1]: 5.08 | Ratio EC50 [2]: 1.1 | pEC50 [3]: 5.05

COc1ccc2nc(C)cc(SCc3ccc(F)cc3)c2c1
pEC50 [1]: 4.39 | Ratio EC50 [2]: 1.2 | pEC50 [3]: 4.30

COc1ccc2nc(C)cc(NC3CCN(C)CC3)c2c1
pEC50 [1]: 5.11 | Ratio EC50 [2]: 0.9 | pEC50 [3]: 5.15

COc1ccc2nc(C)cc(NCc3ccc(C)cc3)c2c1
pEC50 [1]: 4.73 | Ratio EC50 [2]: 1.2 | pEC50 [3]: 4.65

COc1cccc(CNc2cc(C)nc3ccc(OCCCN4CCCC4)cc23)c1
pEC50 [1]: 5.44 | Ratio EC50 [2]: 1.2 | pEC50 [3]: 5.44

COc1ccc2nc(C)cc(NCc3ccc(OC(F)F)cc3)c2c1
pEC50 [1]: 4.98 | Ratio EC50 [2]: 1.4 | pEC50 [3]: 4.83

COc1ccc2nc(C)cc(NCc3ccc(N(C)C)cc3)c2c1
pEC50 [1]: 4.82 | Ratio EC50 [2]: 1.3 | pEC50 [3]: 4.70

COc1cc2c(NCc3ccc(F)cc3)cc(-c3ccc(C)o3)nc2cc1OCCCN1CCCC1
pEC50 [1]: 5.74 | Ratio EC50 [2]: 1.1 | pEC50 [3]: 5.68

COc1ccc2nc(C)cc(SCc3ccccc3)c2c1
pEC50 [1]: 4.51 | Ratio EC50 [2]: 1.2 | pEC50 [3]: 4.43

CCCCCCCCOc1ccc2nc(C)cc(NCc3ccc(F)cc3)c2c1
pEC50 [1]: 5.74 | Ratio EC50 [2]: 1.1 | pEC50 [3]: 5.66

COc1ccc2nc(C)cc(NCc3ccc(C(C)(C)C)cc3)c2c1
pEC50 [1]: 5.16 | Ratio EC50 [2]: 1 | pEC50 [3]: 5.15

COc1ccc2nc(C)cc(NCc3ccc(F)c(F)c3)c2c1
pEC50 [1]: 5.04 | Ratio EC50 [2]: 1.3 | pEC50 [3]: 4.92

COc1ccc2nc(C)cc(NCc3cccc(CO)c3)c2c1
pEC50 [1]: 4.77 | Ratio EC50 [2]: 1.4 | pEC50 [3]: 4.61

COc1ccc2nc(C)cc(NCc3cccc4ccccc34)c2c1
pEC50 [1]: 5.39 | Ratio EC50 [2]: 12 | pEC50 [3]: 4.30

COc1cc2c(NCc3ccc(F)cc3)cc(C)nc2cc1OCCCN1CCCC1
pEC50 [1]: 5.72 | Ratio EC50 [2]: 1.1 | pEC50 [3]: 5.68

CCCOc1ccc2nc(C)cc(NCc3ccc(F)cc3)c2c1
pEC50 [1]: 5.01 | Ratio EC50 [2]: 1.5 | pEC50 [3]: 4.84

COc1ccc2nc(C)cc(NCc3cccc(C(F)(F)F)c3)c2c1
pEC50 [1]: 5.14 | Ratio EC50 [2]: 1 | pEC50 [3]: 5.10

COc1ccc2nc(C)cc(NCc3ccccc3CO)c2c1
pEC50 [1]: 4.64 | Ratio EC50 [2]: 1.1 | pEC50 [3]: 4.59

COc1ccc2nc(C)cc(NCc3ccc(F)c(C(F)(F)F)c3)c2c1
pEC50 [1]: 4.95 | Ratio EC50 [2]: 1 | pEC50 [3]: 4.84

CCCCCCCOc1cc2nc(C)cc(NCc3ccc(F)cc3)c2cc1OC
pEC50 [1]: 5.77 | pEC50 [3]: 5.66

COc1ccc2nc(C)cc(NC[C@H]3NC[C@H](O)[C@@H]3O)c2c1.O=C(O)C(F)(F)F
EC50 [1]: Nd(Toxic) | EC50 [3]: Nd(Toxic)

COc1ccc2nc(C)cc(NCc3ccc(OC)c(F)c3)c2c1
pEC50 [1]: 5.05 | Ratio EC50 [2]: 1.1 | pEC50 [3]: 4.99

COc1ccc2nc(C)cc(NCc3ccncc3)c2c1
pEC50 [1]: 4.39 | Ratio EC50 [2]: 1 | pEC50 [3]: 4.38

COc1ccc2nc(C)cc(NCc3cccc(F)c3)c2c1
pEC50 [1]: 4.95 | Ratio EC50 [2]: 1.3 | pEC50 [3]: 4.83

COc1ccc2nc(C)cc(NCC[C@@H]3CNC[C@H]3O)c2c1.O=C(O)C(F)(F)F
EC50 [1]: Nd(Toxic) | EC50 [3]: Nd(Toxic)

CCCCCCCCCCOc1ccc2nc(C)cc(NCc3ccc(F)cc3)c2c1
pEC50 [1]: 5.72 | Ratio EC50 [2]: 1 | pEC50 [3]: 5.70

COc1ccc2nc(CO)cc(NC3CCN(C)CC3)c2c1
pEC50 [1]: 4.49 | Ratio EC50 [2]: 0.9 | pEC50 [3]: 4.52

COc1ccc2nc(-c3ccc(C)o3)cc(NCc3ccc(F)cc3)c2c1
pEC50 [1]: 5.08 | Ratio EC50 [2]: 1.4 | pEC50 [3]: 4.95

Cc1cc(NCc2cccc(C#N)c2)c2cc(OCCCN3CCCC3)ccc2n1
pEC50 [1]: 5.07 | Ratio EC50 [2]: 1.2 | pEC50 [3]: 4.99

COc1ccc(CNc2cc(C)nc3ccc(OC)cc23)cc1
pEC50 [1]: 5.15 | Ratio EC50 [2]: 1.4 | pEC50 [3]: 5.01

COc1ccc2nc(CO)cc(NCc3ccc(F)cc3)c2c1
pEC50 [1]: 4.68 | Ratio EC50 [2]: 1.5 | pEC50 [3]: 4.51 | inhibition at 3.13 µM [4]: 10%

COc1ccc2nc(C)cc(Nc3ccccc3)c2c1
pEC50 [1]: 4.75 | Ratio EC50 [2]: 0.9 | pEC50 [3]: 4.80

COc1ccc2nc(C)cc(NCc3cccc(OC(F)F)c3)c2c1
pEC50 [1]: 4.99 | Ratio EC50 [2]: 1.3 | pEC50 [3]: 4.84

COc1ccc2nc(C)cc(NCc3ccc(-c4ccccc4)cc3)c2c1
pEC50 [1]: 5.55 | Ratio EC50 [2]: 1 | pEC50 [3]: 5.57

COc1ccc2nc(C)cc(NCc3ccccc3F)c2c1
pEC50 [1]: 4.85 | Ratio EC50 [2]: 1.2 | pEC50 [3]: 4.77

COc1ccc2nc(C)cc(NCc3c(F)cccc3F)c2c1
pEC50 [1]: 4.87 | Ratio EC50 [2]: 1.3 | pEC50 [3]: 4.87

COc1ccc2nc(C)cc(NCc3ccccc3OC)c2c1
pEC50 [1]: 4.60 | Ratio EC50 [2]: 1.2 | pEC50 [3]: 4.53

COc1ccc2nc(C)cc(NCc3ccc(F)c(OC)c3)c2c1
pEC50 [1]: 5.02 | pEC50 [3]: 4.89

COc1ccc2nc(C)cc(NCc3ccccc3)c2c1
pEC50 [1]: 4.59 | Ratio EC50 [2]: 1.1 | pEC50 [3]: 4.54

Cc1cc(NCc2ccc(F)cc2)c2ccccc2n1
pEC50 [1]: 4.81 | Ratio EC50 [2]: 1.3 | pEC50 [3]: 4.70

COc1ccc2nc(C)cc(NCc3ccc(F)cc3F)c2c1
pEC50 [1]: 4.94 | Ratio EC50 [2]: 1.3 | pEC50 [3]: 4.82

Cc1cc(NCc2ccc(F)cc2)c2cc(OCCCCCCO)ccc2n1
pEC50 [1]: 5.09 | Ratio EC50 [2]: 1.4 | pEC50 [3]: 4.95

COc1ccc2nccc(NCc3ccc(F)cc3)c2c1
pEC50 [1]: 4.88 | Ratio EC50 [2]: 1.2 | pEC50 [3]: 4.79

COc1ccc2nc(-c3ccc(C)o3)cc(NC3CCN(C)CC3)c2c1
pEC50 [1]: 5.96 | Ratio EC50 [2]: 0.8 | pEC50 [3]: 6.10

COc1cccc(CNc2cc(C)nc3ccc(OC)cc23)c1
pEC50 [1]: 5.01 | Ratio EC50 [2]: 1.3 | pEC50 [3]: 4.90

CCCCCCOc1ccc2nc(C)cc(NCc3ccc(F)cc3)c2c1
pEC50 [1]: 5.06 | Ratio EC50 [2]: 1 | pEC50 [3]: 5.04
